Test results as given in patent publication US11071697B2, “Metal-carbon structure hybrid formulation for dental use in the treatment of dental hypersensitivity, demineralization and cavities” (UNIVERSIDAD DE CHILE, priority 2016, dated 2021).

Assays:
[1] = Solubility of the salt as ammonia metal complex; type: physicochemical; details: impossible in aqueous solution
Description: In FIG. 6 it is observed the absorption spectrum UV/Visible which confirms this structure.
The shift toward smaller wavelengths gives an account of the formation of ammonia metal complex which is observed in an increase of the solubility of the salt in this solution which allows to reach fluoride concentrations close to 30,000 ppm, which is impossible in aqueous solution.

[2] = system: main bacterial species associated with dental caries; assay: In vitro antibacterial capacity, inhibition halos; type: cell-based; details: composition: 25,000 ppm aqueous (Cu(NH3)6)F2 ammonia with 0.002 g/ml graphite oxide; FIG. 1
Description: FIG. 1. […] The dark zone corresponds to the area where there is no bacterial growth. […] A) Chlorhexidine, B) Silver Diamine Fluorine, C) Silane Fluorine, D) Composition of the Invention. […] These tests have been performed on the main bacterial species associated with dental caries.

(TPH1) human cells = assay: Cell viability by mitochondrial activity assay (MTT); type: cell-based; details: FIG. 2
Description: FIG. 2. Cell viability assay using mitochondrial activity technique (MTT). THP1 cell type.

Row | Structure (SMILES) | fluoride concentrations reached in ammonia solution [1] | areas of inhibition halos [2] [mm^2] | toxicity (in words) ((TPH1) human cells)
1 | N.N.N.N.N.N.[Cu+2].[F-].[F-] [Cu(NH3)6F2] | ~30,000 ppm |  | 
2 | [H]/N=C(\N/C(=N/[H])NCCCCCCNC(=N)NC(=N)Nc1ccc(Cl)cc1)Nc1ccc(Cl)cc1 [chlorhexidine] |  | 659 | a degree of toxicity
